Measurements published in the supplement of paper PMC10307832.

How the values were obtained:
Test in all cases: relative viability (nuclei count vs DMSO), 5 days (fraction); higher = more cells survive
NCI-H3122 = system: NCI-H3122
Outline: (§1)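 For relative viability, nuclei counts in treated wells were divided by those in vehicle wells. Lung cancer cell lines had been pin-tool dosed in 1536-well plates the day after seeding and cultured for 5 days, then fixed and stained in one step (final 0.05% Triton X-100, 1% formaldehyde, 1 ug/ml Hoechst) and imaged at 4×. Doses were one drug alone or a fixed anchor-drug dose plus five library-drug doses (not always all listed) in √10 steps, and values are duplicate-plate medians.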

201T = system: 201T
Outline: as §1

NCI-H647 = system: NCI-H647
Outline: as §1

NCI-H23 = system: NCI-H23
Outline: as §1

NCI-H1395 = system: NCI-H1395
Outline: as §1

HCC-44 = system: HCC-44
Outline: as §1

BEN = system: BEN
Outline: as §1

NCI-H2087 = system: NCI-H2087
Outline: as §1

LOU-NH91 = system: LOU-NH91
Outline: as §1

NCI-H441 = system: NCI-H441
Outline: as §1

NCI-H2023 = system: NCI-H2023
Outline: as §1

NCI-H838 = system: NCI-H838
Outline: as §1

NCI-H1993 = system: NCI-H1993
Outline: as §1

NCI-H2347 = system: NCI-H2347
Outline: as §1

NCI-H596 = system: NCI-H596
Outline: as §1

LCLC-103H = system: LCLC-103H
Outline: as §1

EMC-BAC-2 = system: EMC-BAC-2
Outline: as §1

NCI-H2126 = system: NCI-H2126
Outline: as §1

NCI-H1666 = system: NCI-H1666
Outline: as §1

NCI-H727 = system: NCI-H727
Outline: as §1

NCI-H650 = system: NCI-H650
Outline: as §1

HARA = system: HARA
Outline: as §1

NCI-H2009 = system: NCI-H2009
Outline: as §1

CC1(C)CCC(c2ccc(Cl)cc2)=C(CN2CCN(c3ccc(C(=O)NS(=O)(=O)c4ccc(N[C@H](CCN5CCOCC5)CSc5ccccc5)c(S(=O)(=O)C(F)(F)F)c4)cc3)CC2)C1 [Navitoclax] + CCNC(=O)c1noc(-c2cc(C(C)C)c(O)cc2O)c1-c1ccc(CN2CCOCC2)cc1 [Luminespib] (partner 0.01 µM)
relative viability (NCI-H3122; first compound 0.005 µM): 0.09 | relative viability (NCI-H3122; first compound 0.01581 µM): 0.0825 | relative viability (NCI-H3122; first compound 0.05 µM): 0.11 | relative viability (NCI-H3122; first compound 0.1581 µM): 0.083 | relative viability (NCI-H3122; first compound 0.5 µM): 0.0991 | relative viability (201T; first compound 0.005 µM): 1.05 | relative viability (201T; first compound 0.01581 µM): 1.1 | relative viability (201T; first compound 0.05 µM): 0.982 | relative viability (201T; first compound 0.1581 µM): 1.03 | relative viability (201T; first compound 0.5 µM): 1.08 | relative viability (NCI-H647; first compound 0.005 µM): 0.271 | relative viability (NCI-H647; first compound 0.01581 µM): 0.215 | relative viability (NCI-H647; first compound 0.05 µM): 0.17 | relative viability (NCI-H647; first compound 0.1581 µM): 0.206 | relative viability (NCI-H647; first compound 0.5 µM): 0.133 | relative viability (NCI-H23; first compound 0.005 µM): 0.223 | relative viability (NCI-H23; first compound 0.01581 µM): 0.218 | relative viability (NCI-H23; first compound 0.05 µM): 0.224 | relative viability (NCI-H23; first compound 0.1581 µM): 0.213 | relative viability (NCI-H23; first compound 0.5 µM): 0.209 | relative viability (NCI-H1395; first compound 0.005 µM): 0.741 | relative viability (NCI-H1395; first compound 0.01581 µM): 0.836 | relative viability (NCI-H1395; first compound 0.05 µM): 0.714 | relative viability (NCI-H1395; first compound 0.1581 µM): 0.577 | relative viability (NCI-H1395; first compound 0.5 µM): 0.793 | relative viability (HCC-44; first compound 0.05 µM): 1.33 | relative viability (HCC-44; first compound 0.5 µM): 0.823 | relative viability (BEN; first compound 0.005 µM): 0.269 | relative viability (BEN; first compound 0.01581 µM): 0.271 | relative viability (BEN; first compound 0.05 µM): 0.22 | relative viability (BEN; first compound 0.1581 µM): 0.266 | relative viability (BEN; first compound 0.5 µM): 0.0778 | relative viability (NCI-H2087; first compound 0.005 µM): 0.207 | relative viability (NCI-H2087; first compound 0.01581 µM): 0.204 | relative viability (NCI-H2087; first compound 0.1581 µM): 0.153 | relative viability (NCI-H2087; first compound 0.5 µM): 0.208 | relative viability (LOU-NH91; first compound 0.005 µM): 0.349 | relative viability (LOU-NH91; first compound 0.01581 µM): 0.362 | relative viability (LOU-NH91; first compound 0.05 µM): 0.327 | relative viability (LOU-NH91; first compound 0.1581 µM): 0.321 | relative viability (LOU-NH91; first compound 0.5 µM): 0.275 | relative viability (NCI-H441; first compound 0.005 µM): 0.294 | relative viability (NCI-H441; first compound 0.01581 µM): 0.288 | relative viability (NCI-H441; first compound 0.05 µM): 0.42 | relative viability (NCI-H441; first compound 0.1581 µM): 0.351 | relative viability (NCI-H441; first compound 0.5 µM): 0.336 | relative viability (NCI-H2023; first compound 0.005 µM): 0.782 | relative viability (NCI-H2023; first compound 0.01581 µM): 0.921 | relative viability (NCI-H2023; first compound 0.05 µM): 0.83 | relative viability (NCI-H2023; first compound 0.1581 µM): 0.568 | relative viability (NCI-H2023; first compound 0.5 µM): 0.594 | relative viability (NCI-H838; first compound 0.005 µM): 0.344 | relative viability (NCI-H838; first compound 0.01581 µM): 0.438 | relative viability (NCI-H838; first compound 0.05 µM): 0.37 | relative viability (NCI-H838; first compound 0.1581 µM): 0.17 | relative viability (NCI-H838; first compound 0.5 µM): 0.239 | relative viability (NCI-H1993; first compound 0.005 µM): 0.813 | relative viability (NCI-H1993; first compound 0.01581 µM): 0.891 | relative viability (NCI-H1993; first compound 0.05 µM): 0.824 | relative viability (NCI-H1993; first compound 0.1581 µM): 0.913 | relative viability (NCI-H1993; first compound 0.5 µM): 0.803 | relative viability (NCI-H2347; first compound 0.005 µM): 0.467 | relative viability (NCI-H2347; first compound 0.01581 µM): 0.62 | relative viability (NCI-H2347; first compound 0.1581 µM): 0.372 | relative viability (NCI-H2347; first compound 0.5 µM): 0.312 | relative viability (NCI-H596; first compound 0.005 µM): 0.34 | relative viability (NCI-H596; first compound 0.01581 µM): 1.14 | relative viability (NCI-H596; first compound 0.1581 µM): 0.867 | relative viability (NCI-H596; first compound 0.5 µM): 0.443 | relative viability (LCLC-103H; first compound 0.005 µM): 1.04 | relative viability (LCLC-103H; first compound 0.01581 µM): 1.03 | relative viability (LCLC-103H; first compound 0.05 µM): 1.08 | relative viability (LCLC-103H; first compound 0.1581 µM): 1.02 | relative viability (LCLC-103H; first compound 0.5 µM): 0.884 | relative viability (EMC-BAC-2; first compound 0.005 µM): 1.09 | relative viability (EMC-BAC-2; first compound 0.01581 µM): 1.24 | relative viability (EMC-BAC-2; first compound 0.05 µM): 1.08 | relative viability (EMC-BAC-2; first compound 0.1581 µM): 1.13 | relative viability (EMC-BAC-2; first compound 0.5 µM): 1.12 | relative viability (NCI-H2126; first compound 0.005 µM): 0.906 | relative viability (NCI-H2126; first compound 0.01581 µM): 0.952 | relative viability (NCI-H2126; first compound 0.05 µM): 0.923 | relative viability (NCI-H2126; first compound 0.1581 µM): 0.779 | relative viability (NCI-H2126; first compound 0.5 µM): 0.844 | relative viability (NCI-H1666; first compound 0.005 µM): 0.881 | relative viability (NCI-H1666; first compound 0.01581 µM): 0.969 | relative viability (NCI-H1666; first compound 0.05 µM): 0.989 | relative viability (NCI-H1666; first compound 0.1581 µM): 1.05 | relative viability (NCI-H1666; first compound 0.5 µM): 1.05 | relative viability (NCI-H727; first compound 0.01581 µM): 0.347 | relative viability (NCI-H727; first compound 0.1581 µM): 0.275 | relative viability (NCI-H727; first compound 0.5 µM): 0.28 | relative viability (NCI-H650; first compound 0.005 µM): 0.794 | relative viability (NCI-H650; first compound 0.01581 µM): 0.862 | relative viability (NCI-H650; first compound 0.05 µM): 0.682 | relative viability (NCI-H650; first compound 0.1581 µM): 0.786 | relative viability (NCI-H650; first compound 0.5 µM): 0.827 | relative viability (HARA; first compound 0.005 µM): 0.941 | relative viability (HARA; first compound 0.01581 µM): 0.678 | relative viability (HARA; first compound 0.1581 µM): 0.562 | relative viability (HARA; first compound 0.5 µM): 0.682 | relative viability (NCI-H2009; first compound 0.005 µM): 1.04 | relative viability (NCI-H2009; first compound 0.01581 µM): 1.1 | relative viability (NCI-H2009; first compound 0.05 µM): 1.02 | relative viability (NCI-H2009; first compound 0.1581 µM): 1.07 | relative viability (NCI-H2009; first compound 0.5 µM): 1.04
